Test results from ChEMBL document CHEMBL3102697, “Controlled-deactivation cannabinergic ligands” (J Med Chem, 2013).
Active and inactive are the calls of the source. The calls are words filed in the database; no cut-off is given here.

Key:
Rattus norvegicus [1] = experiment: Induction of hypothermia in sc dosed Sprague-Dawley rat measured for 6 hrs; assay type: functional, organism-based
Cannabinoid receptor 2 [2] = biological target: Cannabinoid receptor 2 (Homo sapiens, UniProt P34972); experiment: Displacement of [3H]CP-55,940 from human CB2 receptor expressed in HEK293 cell membranes by scintillation counting analysis
Chain of Cannabinoid receptor 2 (Homo sapiens, UniProt P34972) (P34972 whole entry): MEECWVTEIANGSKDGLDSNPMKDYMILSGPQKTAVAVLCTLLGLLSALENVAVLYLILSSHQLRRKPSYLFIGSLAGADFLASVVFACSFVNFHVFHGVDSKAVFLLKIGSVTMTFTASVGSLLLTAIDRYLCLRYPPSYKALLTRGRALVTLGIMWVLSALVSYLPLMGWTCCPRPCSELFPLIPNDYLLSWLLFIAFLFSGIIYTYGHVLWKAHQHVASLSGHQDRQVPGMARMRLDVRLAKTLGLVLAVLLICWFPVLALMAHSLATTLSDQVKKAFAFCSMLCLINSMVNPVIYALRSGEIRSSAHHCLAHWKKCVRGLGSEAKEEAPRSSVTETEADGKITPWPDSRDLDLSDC

Rattus norvegicus [3] = experiment: Induction of hypothermia in Sprague-Dawley rat at 1 mg/kg, sc after 90 to 120 mins; assay type: functional, organism-based; set-up: dose 1 mg/kg
Cannabinoid receptor 1 [4] = biological target: T1, Cannabinoid receptor 1 (Rattus norvegicus, UniProt P20272); experiment: Agonist activity at rat CB1 receptor expressed in HEK293 cells assessed as inhibition of forskolin-stimulated cAMP accumulation after 30 mins; assay type: functional, cell-based
T1 sequence (P20272 whole entry): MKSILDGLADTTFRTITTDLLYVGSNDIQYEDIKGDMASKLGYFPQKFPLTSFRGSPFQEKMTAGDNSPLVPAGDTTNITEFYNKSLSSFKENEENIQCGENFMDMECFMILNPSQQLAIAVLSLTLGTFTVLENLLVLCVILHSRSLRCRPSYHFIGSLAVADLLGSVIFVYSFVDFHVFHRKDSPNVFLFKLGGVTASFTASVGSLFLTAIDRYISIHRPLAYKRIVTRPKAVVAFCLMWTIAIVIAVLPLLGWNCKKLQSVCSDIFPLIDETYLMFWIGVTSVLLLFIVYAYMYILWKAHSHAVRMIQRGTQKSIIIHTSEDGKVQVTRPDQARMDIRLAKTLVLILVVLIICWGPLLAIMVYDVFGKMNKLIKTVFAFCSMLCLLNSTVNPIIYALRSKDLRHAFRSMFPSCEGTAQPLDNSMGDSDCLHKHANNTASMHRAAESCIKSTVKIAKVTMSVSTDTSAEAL

Cannabinoid receptor 2 [5] = biological target: Cannabinoid receptor 2 (Mus musculus, UniProt P47936); experiment: Displacement of [3H]CP-55,940 from mouse CB2 receptor expressed in HEK293 cell membranes by scintillation counting analysis
Chain of Cannabinoid receptor 2 (Mus musculus, UniProt P47936) (P47936 whole entry): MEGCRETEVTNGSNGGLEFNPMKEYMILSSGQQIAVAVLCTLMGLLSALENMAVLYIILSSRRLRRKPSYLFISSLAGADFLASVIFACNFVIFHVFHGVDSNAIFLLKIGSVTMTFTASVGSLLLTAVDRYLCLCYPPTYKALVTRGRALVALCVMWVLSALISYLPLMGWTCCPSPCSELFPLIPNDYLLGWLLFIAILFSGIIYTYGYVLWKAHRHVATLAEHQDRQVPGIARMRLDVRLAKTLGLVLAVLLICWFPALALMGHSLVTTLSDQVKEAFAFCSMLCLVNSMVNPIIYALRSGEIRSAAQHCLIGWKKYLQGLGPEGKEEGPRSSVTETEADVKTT

Plasma [6] = experiment: Half life in rat plasma at 200 uM by HPLC analysis; assay type: ADME, cell-free
Rattus norvegicus [7] = experiment: Induction of hypothermia in Sprague-Dawley rat at 1 mg/kg, sc up to 300 mins; assay type: functional, organism-based; set-up: dose 1 mg/kg
[8] = biological target: Cannabinoid receptor 1 (Rattus norvegicus) (UniProt P20272); experiment: Agonist activity at rat CB1 receptor expressed in HEK293 cells assessed as inhibition of forskolin-stimulated cAMP accumulation at 500 nM after 30 mins relative to CP-55,940; assay type: functional, cell-based
Chain of Cannabinoid receptor 1 (Rattus norvegicus) (P20272 whole entry): as the sequence (P20272 whole entry) above

Plasma [9] = experiment: Half life in mouse plasma at 200 uM by HPLC analysis; assay type: ADME, cell-free
Rattus norvegicus [10] = experiment: Induction of hypothermia in Sprague-Dawley rat at 1 to 3 mg/kg, sc measured for 6 hrs; assay type: functional; conditions: dose mg/kg 1-3; route subcutaneous
[11] = biological target: Cannabinoid receptor 1 (Rattus norvegicus) (UniProt P20272); experiment: Agonist activity at rat CB1 receptor expressed in HEK293 cells assessed as inhibition of forskolin-stimulated cAMP accumulation up to 5 uM after 30 mins; assay type: functional, cell-based
Rattus norvegicus [12] = experiment: Induction of hypothermia in Sprague-Dawley rat at 3 mg/kg, sc after 6 hrs; assay type: functional, organism-based; set-up: dose 3 mg/kg
Rattus norvegicus [13] = experiment: Induction of hypothermia in Sprague-Dawley rat at 0.1 to 3 mg/kg, sc measured for 6 hrs; assay type: functional, organism-based
Cannabinoid receptor 1 [14] = biological target: T1, Cannabinoid receptor 1; experiment: Displacement of [3H]CP-55,940 from CB1 receptor in rat brain by scintillation counting analysis; assay type: tissue-based
Rattus norvegicus [15] = experiment: Induction of hypothermia in Sprague-Dawley rat at 3 mg/kg, sc after 90 to 120 mins; assay type: functional, organism-based; set-up: dose 3 mg/kg
Rattus norvegicus [16] = experiment: Induction of hypothermia in Sprague-Dawley rat at 3 mg/kg, sc up to 300 mins; assay type: functional, organism-based; set-up: dose 3 mg/kg
Rattus norvegicus [17] = experiment: Induction of hypothermia in Sprague-Dawley rat at 0.3 mg/kg, sc after 2 hrs; assay type: functional; conditions: route subcutaneous
Mus musculus = experiment: Analgesic activity in CD-1 mouse assessed as tail-flick withdrawal latency at 0.3 to 1 mg/kg, ip; assay type: functional, organism-based
Rattus norvegicus [18] = experiment: Induction of hypothermia in Sprague-Dawley rat at 3 mg/kg, sc after 60 mins; assay type: functional, organism-based; set-up: dose 3 mg/kg
Rattus norvegicus [19] = experiment: Induction of hypothermia in Sprague-Dawley rat at 0.3 mg/kg, sc up to 6 hrs; assay type: functional, organism-based; set-up: dose 0.3 mg/kg
Rattus norvegicus [20] = experiment: Induction of hypothermia in Sprague-Dawley rat at 0.3 mg/kg, sc measured at 12 hrs; assay type: functional, organism-based; set-up: dose 0.3 mg/kg
Rattus norvegicus [21] = experiment: Induction of hypothermia in Sprague-Dawley rat at 0.3 mg/kg, sc after 4 hrs; assay type: functional, organism-based; set-up: dose 0.3 mg/kg

Structure (SMILES) | Activity (Rattus norvegicus [1]) | Ki (Cannabinoid receptor 2 [2]) [nM] | Ki (Cannabinoid receptor 2 [5]) [nM] | t1/2 (Plasma [6]) [min] | t1/2 (Plasma [9]) [min] | Ki (Cannabinoid receptor 1 [14]) [nM] | other results
CCCCOC(=O)C1(c2cc(O)c3c(c2)OC(C)(C)[C@@H]2CC=C(C)C[C@@H]32)CCC1 | Dose-dependent effect | 3 | 3 | 263 | 36.3 | – | Activity (Rattus norvegicus [3]): Active; EC50 (Cannabinoid receptor 1 [4]): 0.4 nM; Activity (Rattus norvegicus [7]): inactive; Emax [8]: 90%; T (Rattus norvegicus [10]): 3.6 °C
CCCCOC(=O)[C@H](C)c1cc(O)c2c(c1)OC(C)(C)[C@@H]1CC=C(C)C[C@@H]21 | – | 3.7 | 4.5 | 10.5 | 5.9 | 1.6 | inhibition [11]: inactive; Activity (Rattus norvegicus [12]): inactive; Activity (Rattus norvegicus [13]): inactive
CCCCOC(=O)[C@@H](C)c1cc(O)c2c(c1)OC(C)(C)[C@@H]1CC=C(C)C[C@@H]21 | Dose-dependent effect | 6.3 | 6.2 | 4.3 | 4 | 0.6 | Activity (Rattus norvegicus [15]): Active; EC50 (Cannabinoid receptor 1 [4]): 4.2 nM; Emax [8]: 63%; T (Rattus norvegicus [10]): 3.6 °C; Activity (Rattus norvegicus [16]): inactive
CC1=CC[C@@H]2[C@@H](C1)c1c(O)cc(C3(C(=O)O)CCC3)cc1OC2(C)C | inactive | – | > 10000 | – | – | > 10000 | –
CCCCOC(=O)Cc1cc(O)c2c(c1)OC(C)(C)[C@@H]1CC=C(C)C[C@@H]21 | – | 51.5 | 40.4 | < 0.5 | 0.7 | 27.1 | inhibition [11]: inactive; Activity (Rattus norvegicus [12]): inactive; Activity (Rattus norvegicus [13]): inactive
CC1=CC[C@@H]2[C@@H](C1)c1c(O)cc([C@@H](C)C(=O)O)cc1OC2(C)C | inactive | – | > 10000 | – | – | > 10000 | –
CC1=CC[C@@H]2[C@@H](C1)c1c(O)cc(CC(=O)O)cc1OC2(C)C | inactive | – | > 10000 | – | – | > 10000 | –
CCCCOC(=O)C(C)(C)c1cc(O)c2c(c1)OC(C)(C)[C@@H]1CC=C(C)C[C@@H]21 | Dose-dependent effect | 1.7 | 2.1 | 120 | 12.4 | 0.3 | EC50 (Cannabinoid receptor 1 [4]): 0.5 nM; T (Rattus norvegicus [17]): 2 °C; Activity (Mus musculus): Active; Activity (Rattus norvegicus [18]): Active; Activity (Rattus norvegicus [19]): Active; Emax [8]: 92%; T (Rattus norvegicus [10]): 3.6 °C; Activity (Rattus norvegicus [16]): inactive
CC1=CC[C@@H]2[C@@H](C1)c1c(O)cc(C(C)(C)C(=O)O)cc1OC2(C)C | inactive | – | > 10000 | – | – | > 10000 | –
CC1=CC[C@@H]2[C@@H](C1)c1c(O)cc([C@H](C)C(=O)O)cc1OC2(C)C | inactive | – | > 10000 | – | – | > 10000 | –
CCCCCCC(C)(C)c1cc(O)c2c(c1)OC(C)(C)[C@@H]1CC=C(C)C[C@@H]21 | – | – | – | – | – | – | Activity (Rattus norvegicus [20]): Active; Activity (Rattus norvegicus [21]): Active; Activity (Mus musculus): Active; Activity (Rattus norvegicus [13]): Active
